The test system of one test is T25E M^pro. In kind it is biochemical, SARS-CoV-2.
The next test concerns M49L M^pro. In kind it is biochemical, SARS-CoV-2.

As for `Cn1cnc(Cn2c(=O)[nH]/c(=N\c3cc4cn(C)nc4cc3Cl)n(Cc3cc(F)c(F)cc3F)c2=O)n1` [ensitrelvir], the results for the “increase of Ki compared to wild-type” value in the test on T25E M^pro and in the test with M49L M^pro were 300 fold and 40 fold, respectively.
Consider `CC(C)(C)[C@H](NC(=O)C(F)(F)F)C(=O)N1C[C@H]2[C@@H]([C@H]1C(=O)N[C@H](C#N)C[C@@H]1CCNC1=O)C2(C)C` [nirmatrelvir], for which the “increase of Ki compared to wild-type” value in the test on T25E M^pro and with M49L M^pro was “minimal to no observed impact on Ki” each time.

For the origin of these results see paper PMC11161032 (ACS infectious diseases, 2023).
